Source: US20070026080A1, “Manufacturing process for tigecycline” (Wyeth, priority 2005, published 2007)

Experiment: Strength and degradation profile of tigecycline 20 mg/mL bulk solutions by reversed phase HPLC (effect of temperature, time, pH, dissolved oxygen; Runs A to O)
Assay type: physicochemical
Settings: 2° C.
Procedure: The contents of the sample vials are dissolved in diluent. The sample solution is diluted, if necessary, and chromatographed on a reversed phase column using gradient elution. Impurities are determined by comparing the impurity peak areas in the sample preparation chromatogram to the average area of tigecycline peaks in the standard preparation chromatograms obtained concomitantly.
Chromatographic Column—Length about 15 cm, inside diameter about 4.6 mm, packed with Inertsil ODS2, 5 μm size particles or equivalent.
Detector—Ultraviolet spectrophotometric detector capable of operating at 248 nm with a sensitivity of about 0.5 absorbance units full scale.
The results of additional studies to investigate the effect of processing parameters such as temperature, time, and dissolved oxygen content on the purity profile of tigecycline solutions using the following materials, methods and procedures are presented in Tables A to O.
The experiments were run in plastic glove bags under normal laboratory light conditions. Plastic glove boxes will be used to control the headspace of the beakers. The batch size was 200 mL. • 1. Prepare the glove bag with a mixture of nitrogen and air to achieve an oxygen level in the solution as per the design. • 2. Place the jacketed beaker on the magnetic stirrer. Connect it to the cooler. Set the cooler to the desired set point. • 3. Add 200 mL of SWFI in to the beaker. Allow equilibrating. Measure the temperature and oxygen content. When it reaches the desired condition, add accurately weighed API and mix until dissolved. If necessary use spatula to aid dissolution. For pH adjustments, use 4 mL of either 0.1N NaOH or 0.1N HCl and 196 mL of WFI for manufacture. • 4. After complete dissolution, Transfer about 5.5 mL of Solution in vials and stopper them. These vials will be stoppered at the appropriate headspace conditions. Place the vials in appropriate temperature conditions. • 5. Sample the vials at 1, 4, 8, 10, 12 and 24 hours. Send the samples for analysis. Freeze the 10, 12 and 24 samples at −20° C. for analysis the following day. • 6. Measure pH and record color of the solution at each time point. Results
The 1-hour samples were taken directly from the beakers. Samples for later time points were collected in stoppered vials processed in the atmosphere of the bag in order to simulate the headspace conditions then placed in water baths or refrigerator to maintain there respective temperature conditions. This was done to maintain safety in the lab. Disposable plastic glove bags require constant flow of a mixture of nitrogen and air to maintain headspace oxygen level that will result in the desired dissolved oxygen (DO) content in the sample. The pH of samples was measured at each sample points.
Strength and degradation profile was analyzed by HPLC as described above. […] Degradation was slightly higher at higher temperature condition.

[1] = Run #K, 20 mg/mL, pH 8.2, Oxygen 0.1 mg/L, hours 1,4,8,10,12,24 at r6-r11, after 24 hours
[2] = Run #L, pH 7.7, Oxygen = 0.1 mg/L, 1 Hrs
[3] = Run #L, pH 7.7, Oxygen = 0.1 mg/L, 4 Hrs
[4] = Run #L, pH 7.7, Oxygen = 0.1 mg/L, 8 Hrs
[5] = Run #L, pH 7.7, Oxygen = 0.1 mg/L, 10 Hrs
[6] = Run #L, pH 7.7, Oxygen = 0.1 mg/L, 12 Hrs

## CN(C)c1cc(NC(=O)CNC(C)(C)C)c(O)c2c1C[C@H]1C[C@H]3[C@H](N(C)C)C(O)=C(C(N)=O)C(=O)[C@@]3(O)C(O)=C1C2=O [Tigecycline]
[1]
  RRT 0.74 Epimer: 0.17%
  RRT 1.45: 0.08%
  RRT 1.64 Mino: 0.14%
  RRT 1.85 MW = 597: 0.08%
  Strength: 19.067 mg/mL
  Total: 0.55%
[2]
  RRT 0.12 MW = 633: BRL (BRL means below reporting limit (meaning less than 0.05% of tigecycline peak))
  RRT 0.23 MW = 572: BRL (BRL means below reporting limit (meaning less than 0.05% of tigecycline peak))
  RRT 0.50 MW = 601: BRL (BRL means below reporting limit (meaning less than 0.05% of tigecycline peak))
  RRT 0.55 MW = 583: BRL (BRL means below reporting limit (meaning less than 0.05% of tigecycline peak))
  RRT 0.58: 0.08%
  RRT 0.64 9-Amino: BRL (BRL means below reporting limit (meaning less than 0.05% of tigecycline peak))
  RRT 0.74 Epimer: 0.17%
  RRT 0.76: BRL (BRL means below reporting limit (meaning less than 0.05% of tigecycline peak))
  RRT 0.78 MW = 557: BRL (BRL means below reporting limit (meaning less than 0.05% of tigecycline peak))
  RRT 1.12: BRL (BRL means below reporting limit (meaning less than 0.05% of tigecycline peak))
  RRT 1.45: 0.08%
  RRT 1.58: BRL (BRL means below reporting limit (meaning less than 0.05% of tigecycline peak))
  RRT 1.64 Mino: 0.14%
  RRT 1.67 MW = 556: BRL (BRL means below reporting limit (meaning less than 0.05% of tigecycline peak))
  RRT 1.85 MW = 597: 0.07%
  Strength: 19.23 mg/mL
  Total: 0.53%
[3]
  RRT 0.12 MW = 633: BRL (BRL means below reporting limit (meaning less than 0.05% of tigecycline peak))
  RRT 0.23 MW = 572: BRL (BRL means below reporting limit (meaning less than 0.05% of tigecycline peak))
  RRT 0.50 MW = 601: BRL (BRL means below reporting limit (meaning less than 0.05% of tigecycline peak))
  RRT 0.55 MW = 583: BRL (BRL means below reporting limit (meaning less than 0.05% of tigecycline peak))
  RRT 0.58: 0.08%
  RRT 0.64 9-Amino: BRL (BRL means below reporting limit (meaning less than 0.05% of tigecycline peak))
  RRT 0.74 Epimer: 0.17%
  RRT 0.76: BRL (BRL means below reporting limit (meaning less than 0.05% of tigecycline peak))
  RRT 0.78 MW = 557: BRL (BRL means below reporting limit (meaning less than 0.05% of tigecycline peak))
  RRT 1.12: BRL (BRL means below reporting limit (meaning less than 0.05% of tigecycline peak))
  RRT 1.45: 0.07%
  RRT 1.58: BRL (BRL means below reporting limit (meaning less than 0.05% of tigecycline peak))
  RRT 1.64 Mino: 0.15%
  RRT 1.67 MW = 556: BRL (BRL means below reporting limit (meaning less than 0.05% of tigecycline peak))
  RRT 1.85 MW = 597: 0.08%
  Strength: 19.053 mg/mL
  Total: 0.54%
[4]
  RRT 0.12 MW = 633: BRL (BRL means below reporting limit (meaning less than 0.05% of tigecycline peak))
  RRT 0.23 MW = 572: BRL (BRL means below reporting limit (meaning less than 0.05% of tigecycline peak))
  RRT 0.50 MW = 601: BRL (BRL means below reporting limit (meaning less than 0.05% of tigecycline peak))
  RRT 0.55 MW = 583: BRL (BRL means below reporting limit (meaning less than 0.05% of tigecycline peak))
  RRT 0.58: 0.08%
  RRT 0.64 9-Amino: BRL (BRL means below reporting limit (meaning less than 0.05% of tigecycline peak))
  RRT 0.74 Epimer: 0.17%
  RRT 0.76: 0.05%
  RRT 0.78 MW = 557: BRL (BRL means below reporting limit (meaning less than 0.05% of tigecycline peak))
  RRT 1.12: BRL (BRL means below reporting limit (meaning less than 0.05% of tigecycline peak))
  RRT 1.45: 0.08%
  RRT 1.58: BRL (BRL means below reporting limit (meaning less than 0.05% of tigecycline peak))
  RRT 1.64 Mino: 0.13%
  RRT 1.67 MW = 556: BRL (BRL means below reporting limit (meaning less than 0.05% of tigecycline peak))
  RRT 1.85 MW = 597: 0.08%
  Strength: 18.988 mg/mL
  Total: 0.60%
[5]
  RRT 0.12 MW = 633: BRL (BRL means below reporting limit (meaning less than 0.05% of tigecycline peak))
  RRT 0.23 MW = 572: BRL (BRL means below reporting limit (meaning less than 0.05% of tigecycline peak))
  RRT 0.50 MW = 601: BRL (BRL means below reporting limit (meaning less than 0.05% of tigecycline peak))
  RRT 0.55 MW = 583: BRL (BRL means below reporting limit (meaning less than 0.05% of tigecycline peak))
  RRT 0.58: 0.07%
  RRT 0.64 9-Amino: BRL (BRL means below reporting limit (meaning less than 0.05% of tigecycline peak))
  RRT 0.74 Epimer: 0.22%
  RRT 0.76: 0.05%
  RRT 0.78 MW = 557: BRL (BRL means below reporting limit (meaning less than 0.05% of tigecycline peak))
  RRT 1.12: BRL (BRL means below reporting limit (meaning less than 0.05% of tigecycline peak))
  RRT 1.45: 0.07%
  RRT 1.58: BRL (BRL means below reporting limit (meaning less than 0.05% of tigecycline peak))
  RRT 1.64 Mino: 0.13%
  RRT 1.67 MW = 556: BRL (BRL means below reporting limit (meaning less than 0.05% of tigecycline peak))
  RRT 1.85 MW = 597: 0.08%
  Strength: 19.424 mg/mL
  Total: 0.62%
[6]
  RRT 0.12 MW = 633: BRL (BRL means below reporting limit (meaning less than 0.05% of tigecycline peak))
  RRT 0.23 MW = 572: BRL (BRL means below reporting limit (meaning less than 0.05% of tigecycline peak))
  RRT 0.50 MW = 601: BRL (BRL means below reporting limit (meaning less than 0.05% of tigecycline peak))
  RRT 0.55 MW = 583: BRL (BRL means below reporting limit (meaning less than 0.05% of tigecycline peak))
  RRT 0.58: 0.07%
  RRT 0.64 9-Amino: BRL (BRL means below reporting limit (meaning less than 0.05% of tigecycline peak))
  RRT 0.74 Epimer: 0.23%
  RRT 0.76: BRL (BRL means below reporting limit (meaning less than 0.05% of tigecycline peak))
  RRT 0.78 MW = 557: BRL (BRL means below reporting limit (meaning less than 0.05% of tigecycline peak))
  RRT 1.12: BRL (BRL means below reporting limit (meaning less than 0.05% of tigecycline peak))
